For data set [1] the following is noted: cited from earlier work. How it is done: Table 2 Neuroactivity of ant venom peptides on blowfly species (Lucilia spp.) ranked by PD50 values 1 h post injection. | column: Cytotoxicity
Data set [2] deals with blowfly Lucilia caesar. The note with it: L. caesar, 1 h post injection; cited from earlier work. How it is done: Table 2 Neuroactivity of ant venom peptides on blowfly species (Lucilia spp.) ranked by PD50 values 1 h post injection. | column: PD50 [1 h] *
Data set [3] relates to S2 cells. In words: Intracellular Ca2+ mobilization, Fluo-4/AM probe. The note with it: 10 µM, 1 h preincubation, thapsigargin 2 µM then CaCl2 1.8 mM. Format: cell-based, Drosophila. How it is done:
(§1) The embryonic S2 Drosophila cell line (Thermofisher, Waltham, MA, USA) was maintained in Schneider’s insect medium (Sigma-Aldrich, Saint Louis, MO, USA) complemented with 10% heat-inactivated fetal bovine serum (FBS) (Sigma-Aldrich) and 1% Penicillin/Streptomycin (Sigma-Aldrich) at 25 °C without CO2 on TC-treated support (Corning®, Glendale, AZ, USA). The FBS was heat inactivated at 60 °C for 45 min. The cells were passaged every two days at about 90% confluence.
The [Ca^2+]i mobilization was measured with the Fluo-4/AM probe using the imaging reader Cytation 1 (BioTek, Agilent). Then, 6 × 10^5 S2 cells/mL were plated on glass-bottom Petri dishes and allowed to adhere for 24 h before experiments. Cells are incubated with 2 µM of Fluo-4/AM in cell culture medium with 2.5 mM probenecid for 1 h at 25 °C with 10 µM of U11 peptide. Then, cells were rinsed twice in Ca^2+-free buffer containing (in mM) 120 NaCl, 5 KCl, 4 MgCl2, 32.2 Sucrose, 10 HEPES, 0.1 EGTA, 2.5 probenecide (pH 7.2), incubated in Ca^2+-free buffer, and processed for measurement of cytoplasmic Ca^2+ concentration. […] Cell fluorescence was analyzed with CALIMA [59] […] Changes in the Ca^2+ cytosolic concentration were calculated from changes of fluorescence relative to time 0 (F = Ft/Ft0 (fluorescence at time = t/time = 0)).
In general terms: Calcium flux is commonly read through the fluorescence of an indicator in the cells.

The subject of data set [4] is aphids (Acyrthosiphon pisum). In words: Aphid intra-abdominal injection assay. Type of data set: in vivo. The conditions noted are these: A. pisum. Here is the method:
(§2) In this study, we screened the neurotoxic activity of U11 when injected into a panel of beneficial and pest insects such as honeybees, blowflies, and aphids. Blowfly is a dipteran model commonly used to evaluate the insecticidal potency of venom peptides. Blowfly maggots (Lucilia caesar) were bought from a fisheries shop (Euroloisir81, Lescure-d’Albigeois, France) and were kept at 25 °C until hatching. Flies 1–4 days post hatching were used for the injection assays. Honeybee (Apis mellifera) is a model of choice to assess the impact of a toxin against beneficial insects such as pollinators. The honeybee colonies used in this study belong to the Buckfast breed and were maintained at the University Champollion campus in Albi. Adult foraging honeybees were individually isolated in plastic vials and immediately injected. Assays on blowflies and honeybees were conducted by lateral intrathoracic injection of peptides dissolved in ultra-pure water at several concentrations (from 0.005 to 0.52 mM for L. caesar and from 0.002 to 1 mM for A. mellifera) by using a 1.0 mL Hamilton Syringe (1000 Series Gastight, Hamilton Company, Reno, NV, USA) with a fixed 25 gauge needle attached to an Arnold hand microapplicator (Burkard Manufacturing Co., Ltd., Rickmansworth, UK). Each fly/bee received 1 µL of peptide solution and was individually housed in a 2 mL tube with 3 µL of 5% glucose solution. Paralytic activity was monitored at 1 h and 24 h after injection while lethality was monitored only at 24 h. […] Ten flies/honeybees were used for each toxicity experiment and for the appropriate control (ultrapure water solution), and the experiment was repeated three times for each dose. Dose–response data were analyzed as detailed by Touchard et al.. The pea aphids A. pisum used in this study were obtained from a long-established parthenogenetic clone (LL01). […] Aphids were monitored daily for 7 days after injection and their survival and behavior regularly checked, following the protocol developed by Ribeiro Lopes et al.. […]

For a further data set, the system named is L. caesar. In words: Ingestion assay on blowflies. Format: in vivo, Lucilia caesar. Here is the method:
(§3) We used the same protocol used in Guo et al. for the ingestion assays with flies (L. caesar and D. melanogaster). Briefly, flies were placed in 2 mL microcentrifuge tubes right after hatching and were individually fed with 3 µL of 50% w/v sucrose solution (negative control) or sucrose solution containing the toxin. They were then kept at 25 °C. Mortality was recorded at 1, 2, 4, 24, 48, and 72 h after exposure to the tested compound. The surviving flies received 3 µL of 50% w/v sucrose solution without peptide each day until the end of the experiment. For each test, ten flies were used per treatment and each of them was replicated three times.

In a further data set the test system is A. mellifera. In words: Ingestion assay on honeybees. Format: in vivo, Apis mellifera. The conditions noted are these: force fed 5 µL sucrose solution with 8 mg/mL (110 nmol/g bee). Here is the method:
The ingestion assays on honeybees were conducted by placing bees in 850 mL plastic storage boxes with 2 mL microcentrifuge tubes filled with 50% w/v sucrose solution and previously drilled for bee access. The boxes were kept at 25 °C in the dark and the bees were allowed to feed ad libitum on the sucrose solution. For each test, ten bees were used per treatment, and each of them was replicated three times. Lethality was recorded at 1, 2, 4, 24, and 48 h after exposure to U11 peptide.
For oral toxicity assays, insects were starved for 2 h prior testing. Bees were individually force fed with 5 µL of 50% w/v sucrose solution (negative control), or sucrose solution containing the toxin (8 mg/mL–110 nmol/g bee).

A further data set has as its system A. pisum. Briefly: Feeding experiment on aphids. Format: in vivo, Acyrthosiphon pisum. The note with it: artificial diet with 500 μg/mL and 1 mg/mL, seven days. Here is the method: For the feeding experiments on aphids, one-day-old aphids (corresponding to the first-instar nymphs N1) were placed for seven days in feeding chambers on 48 μL of a nutritive artificial diet specifically developed for A. pisum feeding, and development was completed with or without the peptide U11. The diets were changed after three days to avoid contamination. Ten N1 were deposited in the feeding chamber and three replicates were performed for each bioassay. Aphids’ mortality was assessed every day and compared between the different diets using a GLM linear regression model after observation of the residuals with a significance level of 5% on the R Studio software. Survival of aphids on two diets, completed, respectively, with U11 at 500 μg/mL and 1 mg/mL, was followed during seven days.

Another data set concerns D. melanogaster. In words: Ingestion assay on Drosophila. The note with it: fed at high doses in 50% sucrose (Figure S2). Format: in vivo. How it is done:
as §3

For data set [5], the system named is blowfly Lucilia caesar. In words: Blowfly paralytic assay, intrathoracic injection. Format: in vivo. The note with it: L. caesar; for PD50 [1 h]: 1 h post injection, mean ± SEM, n = 3, ten flies per dose. Here is the method: as §2, with “(LL01). Aphids were kept on young broad bean plants (Vicia faba, L. cv. Aquadulce) at 21 °C with a photoperiod of 16 h light 8 h dark, allowing us to maintain them as strictly parthenogenetic matrilines. To produce synchronized apterous nymphs, winged adults were allowed to reproduce on seedlings for 24 h. The resulting synchronized nymphs were reared for 9 days on plants before the beginning of the experiments (peptide injection or feeding). For the injection experiment, we used four groups of synchronized A9 aphids (30 per group): (i) non-injected aphids, (ii) aphids injected with sterilized ultra-pure water (injection control), (iii) aphids injected with PA1b inactivated peptide (non-toxic peptide injection control), and (iv) aphids injected with the U11 peptide.” for “(LL01).”

Data set [6] concerns honeybees (Apis mellifera). Briefly: Honeybee paralytic assay, intrathoracic injection. Format: in vivo. The conditions noted are these: A. mellifera, n = 3. Here is the method:
In this study, we screened the neurotoxic activity of U11 when injected into a panel of beneficial and pest insects such as honeybees, blowflies, and aphids. Blowfly is a dipteran model commonly used to evaluate the insecticidal potency of venom peptides. Blowfly maggots (Lucilia caesar) were bought from a fisheries shop (Euroloisir81, Lescure-d’Albigeois, France) and were kept at 25 °C until hatching. Flies 1–4 days post hatching were used for the injection assays. Honeybee (Apis mellifera) is a model of choice to assess the impact of a toxin against beneficial insects such as pollinators. The honeybee colonies used in this study belong to the Buckfast breed and were maintained at the University Champollion campus in Albi. Adult foraging honeybees were individually isolated in plastic vials and immediately injected. […] Paralytic activity was monitored at 1 h and 24 h after injection while lethality was monitored only at 24 h. […] Dose–response data were analyzed as detailed by Touchard et al.. […] Aphids were monitored daily for 7 days after injection and their survival and behavior regularly checked, following the protocol developed by Ribeiro Lopes et al.. […]

The next data set deals with Sitophilus oryzae. Briefly: Weevil toxicity test by ingestion. Type of data set: in vivo. The conditions noted are these: S. oryzae, 800 μg/g of feed, two weeks. How it is done:
S. oryzae toxicity tests were performed with the WAA42 strain as described previously. Briefly, the insects used for the bioassays were adults 2 to 3 weeks of age collected in one week experimental cohorts and placed in batches of 30 individuals on feed pellets containing the synthetic U11 tested in a whole grain-based diet. The tested concentration of the U11 was 800 μg/g of the feed. Bioactivity was assessed by daily insect survival during the first two weeks of contact with the test diet (27.5 °C, 70% room humidity) and by standard survival analysis.

In data set [7] the test system is S2 Drosophila embryonic cell line. Briefly: LDH cytotoxicity assay. The note with it: S2 cells, 5 and 50 µM, 1 h and 24 h of incubation. Type of data set: cell-based. Here is the method: as §1
(§4) The CCK-8 (BosterBio, Pleasanton, CA, USA) and LDH (Dojindo, Rockville, MD, USA) assay kits were used to assess the cellular viability and mortality, with densities of 2 × 10^5 cells/mL and 6 × 10^5 cells/mL, respectively. Briefly, 100 µL of S2 cells at the appropriate densities were seeded in 96-well TC-treated plates and incubated for 24 h at 25 °C. […] Lysis Buffer, Triton 0.1%, and culture medium were used for controls. Viability and mortality cell assays were realized separately and in triplicates according to manufacturer’s instructions. The absorbances were measured using a BioTek Cytation 1 microplate reader (Agilent, Santa Clara, CA, USA) (i.e., 450 nm and 490 nm for CCK-8 and LDH assays, respectively). The percentages of living or dead cells were then calculated according to manufacturer’s recommendations.

Data set [8] has the same test system. In words: CCK-8 cytotoxicity assay. Type of data set: cell-based. How it is done: as §1, §4
In general terms: Tetrazolium dyes change colour on reduction, which living cells bring about.

The subject of data set [9] is S2 cells. In words: Membrane potential recorded by DiBAC4(3). Format: cell-based, Drosophila. The conditions noted are these: 10 µM, KCl 50 mM. How it is done:
as §1
Variations of membrane potential were assessed using the fluorescent dye bis-(1,3-dibutybarbituric acid) (DiBAC4(3)) (Thermofisher) using a IX73 fluorescence microscope (Olympus, Japan). Then, 6 × 10^5 S2 cells were plated on 0.01% Poly-L-Lysine (Sigma-Aldrich) coated glass-bottom Petri dishes and allowed to adhere for 24 h before experiments. […] Baseline was recorded for 1 min before addition of KCl (50 Mm final) to achieve membrane depolarization. The results are presented as transformed data to obtain the relative fluorescence to the time of addition of the stimulus, according to the equation: Fx = Ft/F0, where Ft represents the fluorescent value at a specific time point and F0 represents the mean basal fluorescent value. To compare the different conditions, areas under the curve (AUC) after KCl addition were calculated (between 60 and 300 s).

Where two headings read alike, the source gives them in different places.

For the substance bicarinalin [M-Tb1a], in data set [1], the Cytotoxicity result is “Yes”. In addition, the “PD50 [1 h]” value in the data set with blowfly Lucilia caesar [2] is 12.0 ± 1.0 nmol/g.
In the case of U11-MYRTX-Tb1a, the “calcium mobilization (Tg response and calcium influx)” value in the data set with S2 cells [3] is reported as “No effect”. In data set [4] (injection 3.4 nmol. g^−1, monitored over 7 days (Figure S1)), the “effect on aphid fitness” value is recorded as “weak effect”. The “aphids affected 24 h post injection” value in data set [4] (intra-abdominal injection, 3.4 nmol. g^−1 (46 nL of 0.25 mM), 24 h) is reported as 6.6%. The “paralytic effect on aphids by injection” value in data set [4] (intra-abdominal injection, 3.4 nmol. g^−1, 24 h) was “weak paralytic effect”. The toxicity by ingestion result with L. caesar (fed at high doses in 50% sucrose (Figure S2)) is “active by ingestion”; in the data set on A. mellifera it was “unaffected”; in the data set on A. pisum it was “unaffected”; in the data set with D. melanogaster, “active by ingestion”; in the data set with Sitophilus oryzae it was “unaffected”. In addition, the “blowflies affected 24 h post ingestion” value in the data set on L. caesar (ingestion, 8 mg/mL (350 nmol. g^−1), 24 h) turned out to be 60%. For the same substance, in the data set on blowfly Lucilia caesar [5] (intrathoracic injection of one high dose per peptide (Table 1: U8 54, U10 28, U11 27, U13 45 nmol. g^−1), 1 h, ten flies per replicate, three replicates), the “paralysis of flies 1 h after injection (screen)” value was “paralysis of all flies”. The “PD50 [1 h]” value is 1.78 ± 0.12 nmol/g in the data set with blowfly Lucilia caesar [5] (intrathoracic injection) and 1.8 ± 0.1 nmol/g in the data set on blowfly Lucilia caesar [5] (intrathoracic injection, listed as U11-Tb1a). The “PD50 24 h post injection” value is 2.67 ± 0.13 nmol/g in the data set with blowfly Lucilia caesar [5] (intrathoracic injection, 24 h post injection, n = 3) and 1.11 ± 0.09 nmol/g in data set [6] (24 h post injection). In data set [6] (1 h post injection), the “PD50 1 h post injection” value is 1.36 ± 0.08 nmol/g. The “cytotoxicity, LDH assay” value in [7] is on record as “not cytotoxic”. Moreover, the “cytotoxicity, CCK-8 assay” value in data set [8] (S2 cells, 5 and 50 µM, 1 h and 24 h of incubation) was “not cytotoxic”. For the same substance, the Cytotoxicity entry in data set [8] (Table 2, this study: CCK-8 and LDH assays on S2 cells) is “No”. Further, the “depolarization-induced increase in fluorescence intensity, less than in the control condition” value in the data set with S2 cells [9] (30 min, DiBAC4(3), NMDG buffer) is 33%. Further, the “AUC of relative fluorescence after KCl application” value in the data set on S2 cells [9] (60-300 s, mean ± SEM of n = 220 cells (n = 3), control 464 ± 35) is 312 ± 23.

These data come from paper PMC10610885, “Discovery of an Insect Neuroactive Helix Ring Peptide from Ant Venom” (Toxins, 2023).
